These molecules were tested on Pulicinae (assay: In vitro systemic flea efficacy using membrane feeding assay.).
Assay type: functional

Q: For C=C(C)[C@H]1C(=O)c2c3c(cc4c5c(n1c24)[C@@]1(C)C(CC[C@H]2[C@](C)(/C=C/C=C\C(N)=O)[C@@H](O)CC[C@@]21C)C5)C1=CC(C)(C)OC(C)(C)C1[C@@H]3O (some centres not stated), which Activity is on record?
A: Its Activity is 10 p.p.m.

Q: With C=C(C)[C@H]1C(=O)c2c3c(cc4c5c(n1c24)[C@@]1(C)C(CC[C@H]2[C@](C)(/C=C/C=C(\C(C)=O)C(=O)N(C)C)[C@@H](O)CC[C@@]21C)C5)C1=CC(C)(C)OC(C)(C)C1[C@@H]3O (some centres not stated) as the molecule, how does the Activity read?
A: Its Activity is 1 p.p.m.

Q: For C=C(C)[C@H]1C(=O)c2c3c(cc4c5c(n1c24)[C@@]1(C)C(CC[C@H]2[C@](C)(/C=C/C=C(\CCC)C(=O)NCC)[C@@H](O)CC[C@@]21C)C5)C1=CC(C)(C)OC(C)(C)C1[C@@H]3O (stereo in doubt), which Activity is on record?
A: Its Activity is 10 p.p.m.

Q: How did the Activity turn out when C=CC/C(=C\C=C\[C@]1(C)[C@@H](O)CC[C@@]2(C)[C@H]1CCC1Cc3c(n4c5c(c6c(cc35)C3=CC(C)(C)OC(C)(C)C3[C@@H]6O)C(=O)[C@@H]4C(=C)C)[C@@]12C)C(=O)NCC (some centres not stated) was run?
A: Its Activity is 1 p.p.m.

Q: C=C(C)[C@H]1C(=O)c2c3c(cc4c5c(n1c24)[C@@]1(C)C(CC[C@H]2[C@](C)(/C=C/C(C)=C/C(=O)O)[C@@H](O)CC[C@@]21C)C5)C1=CC(C)(C)OC(C)(C)C1[C@@H]3O (some centres not stated) was tested. Which Activity did it give?
A: The Activity was 10 p.p.m.

Q: With C=C(C)[C@H]1C(=O)c2c3c(cc4c5c(n1c24)[C@@]1(C)C(CC[C@H]2[C@](C)(/C=C/C=C(\OC)C(N)=O)[C@@H](O)CC[C@@]21C)C5)C1=CC(C)(C)OC(C)(C)C1[C@@H]3O (some centres not stated) as the molecule, how does the Activity read?
A: Its Activity is 10 p.p.m.

Q: Which Activity does the source give for C=C(C)[C@H]1C(=O)c2c3c(cc4c5c(n1c24)[C@@]1(C)C(CC[C@H]2[C@](C)(/C=C/C=C(\F)C(=O)NC(C)(C)C)[C@@H](O)CC[C@@]21C)C5)C1=CC(C)(C)OC(C)(C)C1[C@@H]3O (some centres not stated) here?
A: The Activity was 1 p.p.m.

From ChEMBL document CHEMBL1135452, “Side-chain homologation of nodulisporic acid: synthesis of potent new dienyl derivatives” (Bioorg Med Chem Lett, 2002)
